Source: patent US12391913B2, “Lactiplantibacillus plantarum strain for alleviating hyperuricemia and combination and use thereof” (Northeast Agricultural University, priority 2023, dated 2025)

What was measured:
Type in all cases: in vivo, Wistar rats
[1] = test system: potassium oxonate and xanthine-induced hyperuricemic rats; assay: serum creatinine levels in hyperuricemic rats; details: oral gavage once daily for 14 days, vs model group
Experimental: (§1) 48 healthy specific pathogen-free (SPF) male Wistar rats (7 weeks, body weight: (200±20) g) were selected. In order to acclimate to a new environment, the 48 male rats were maintained in the animal house with the temperature of 22° C., the humidity of 10% to 60%, and 12 h/12 h light/dark cycle, and fed with standard diet and water ad libitum for 1 week. After the 1 week of acclimating, all experimental rats were randomly assigned to the following 6 groups with 8 rats per group: a control group (group A), a model group (group B), a Lactiplantibacillus plantarum strain BL-17 treated group (group C), a galacto-oligosaccharide-adenylic acid treated group (group D), a combination treated group (group E), and an allopurinol intervention treated group (positive control) (group F). […]
(§2) At the late stage of the experiment, fresh feces of the rats were collected and frozen in a −80° C. refrigerator. […] After being collected, the liver tissue was immediately rinsed with pre-cooled normal saline to remove blood, rapidly frozen in liquid nitrogen and then frozen at −80° C., and subsequently homogenized into liver homogenate, and then relevant indicators were determined. […]

[2] = test system: potassium oxonate and xanthine-induced hyperuricemic rats; assay: serum uric acid levels in hyperuricemic rats; details: oral gavage once daily for 14 days, vs model group (group B)
Experimental: as §1, §2

[3] = test system: potassium oxonate and xanthine-induced hyperuricemic rats; assay: urinary uric acid level in hyperuricemic rats; details: oral gavage once daily for 14 days, vs model group (group B)
Experimental: as §1

[4] = test system: XOD; assay: activity of XOD in serum and liver tissues of hyperuricemic rats; details: oral gavage once daily for 14 days, vs model group
Experimental: as §1, §2

Compound: Oc1ncnc2[nH]ncc12 [allopurinol]
- serum creatinine levels compared with hyperuricemia model group [1]: decrease
- serum uric acid concentration compared with model group [2]: decrease
- urinary uric acid levels compared with model group [3]: decrease to urinary uric acid levels in rats of the control group
- activities of XOD in serum and liver compared with model group [4]: decrease to varying degrees
